Results as given in patent publication US11883387B2, “PqsR inverse agonists” (HELMHOLTZ-ZENTRUM FÜR INFEKTIONSFORSCHUNG GMBH, priority 2018, dated 2024).

Key:
[1] = tested on: P. aeruginosa pyocyanin production; assay: Pyocyanin assay; format: cell-based, P. aeruginosa PA14; conditions: Pseudomonas aeruginosa, PA14, 16 h, read-out: IC50-value towards pyocyanin production, PA14 in PPGAS medium, 16 h
Protocol: Inhibition of P. aeruginosa pyocyanin production by compounds was determined photometrically as described before.[20] In short, an overnight culture of PA14 in PPGAS medium was washed, diluted in medium to a start OD600 of 0.02, and incubated for 16 h (37° C., 200 rpm, relative humidity 75%) in the presence of test compounds. Then, cultures were extracted with chloroform and re-extracted with 0.2 M HCl. Protonated red colored pyocyanin was determined by measuring OD520 and normalizing to OD600.

[2] = molecular target: PqsR (Pseudomonas aeruginosa, UniProt Q9I4X0); assay: E. coli based β-galactosidase reporter gene assay (PqsR inverse agonistic activity); format: cell-based; set-up: expressed in transfected cells; host or cells: Escherichia coli DH5α
Chain of PqsR (Q9I4X0 whole entry): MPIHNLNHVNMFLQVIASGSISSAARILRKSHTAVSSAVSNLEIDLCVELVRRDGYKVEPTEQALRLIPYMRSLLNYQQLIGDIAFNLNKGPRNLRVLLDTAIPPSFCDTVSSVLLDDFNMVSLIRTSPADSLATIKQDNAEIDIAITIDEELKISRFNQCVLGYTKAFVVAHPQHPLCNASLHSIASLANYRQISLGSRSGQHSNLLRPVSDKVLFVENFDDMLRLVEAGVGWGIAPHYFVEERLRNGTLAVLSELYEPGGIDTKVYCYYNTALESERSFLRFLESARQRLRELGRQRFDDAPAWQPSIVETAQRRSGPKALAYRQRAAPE
Protocol: Inhibition of pqsR-dependent gene expression of test compounds was determined in an E. coli based β-galactosidase reporter gene assay.[19] Escherichia coli DH5α was transfected with pEAL08-2 plasmid encoding pqsR under control of promoter tac and β-galactosidase reporter gene lacZ under control of promoter pqsA. Antagonistic effects of compounds were evaluated in the presence of/in competition to 50 nM PQS. A positive control was used to ensure the reliability of individual assays. First, PQS was diluted in methanol and added to the wells of a glass coated 96-deep-well plate, and the solvent was evaporated. Then, compounds were added in 5 μL DMSO to final concentrations of 0.001-10 μM. Overnight cultures of E. coli DH5a×pEAL08-2 were diluted 1:100 in LB medium with ampicillin (50 μg/ml) and incubated at 37° C. with shaking until it reached an OD600 of 0.2. Finally, 995 μL of culture was added to each well and the p-galactosidase activity was determined by ortho-nitrophenyl-p-galactoside conversion in permeabilized cells after a 2.5 h incubation period (37° C., 180 rpm). OD600, OD420, and OD550 were measured using POLARstar Omega (BMG Labtech, Ortenberg, Germany), and the activity was expressed as ratio of the slope of β-galactosidase activity between basal control (no PQS) and solvent control. IC50 values of antagonists were determined by variation of the concentration of the test compounds.

| Compound | IC50 [1] | IC50 [2] |
| --- | --- | --- |
| Fc1cccc2c1cnn2-c1ccc(-n2cc(CNc3cc(Cl)nc(C(F)(F)F)c3)nn2)cc1 [Compound 146, 2-chloro-N-((1-(4-(4-fluoro-1H-indazol-1-yl)phenyl)-1H-1,2,3-triazol-4-yl)methyl)-6-(trifluoromethyl)pyridin-4-amine] | 251 to 1000 nM | – |
| O=[N+]([O-])c1cc(-c2ncc(CNc3cc(Cl)nc(C(F)(F)F)c3)cn2)ccc1Cl [Compound 169, 2-chloro-N-((2-(4-chloro-3-nitrophenyl)pyrimidin-5-yl)methyl)-6-(trifluoromethyl)pyridin-4-amine] | ≤ 250 nM | – |
| FC(F)(F)c1cc(NCc2cn(-c3ccc(-n4ncc5ccncc54)cc3)nn2)cc(Cl)n1 [Compound 151, N-((1-(4-(1H-pyrazolo[3,4-c]pyridin-1-yl)phenyl)-1H-1,2,3-triazol-4-yl)methyl)-2-chloro-6-(trifluoromethyl)pyridin-4-amine] | 251 to 1000 nM | – |
| CC(C)Oc1ccc(-c2ncc(CNc3cc(Cl)nc(C(F)(F)F)c3)cn2)cc1 [Compound 168, 2-chloro-N-((2-(4-isopropoxyphenyl)pyrimidin-5-yl)methyl)-6-(trifluoromethyl)pyridin-4-amine] | ≤ 250 nM | – |
| COc1ccc(-n2cc(CNc3ccnc(C(F)(F)F)c3)nn2)cc1F [Compound 026, N-((1-(3-Fluoro-4-methoxyphenyl)-1H-1,2,3-triazol-4-yl)methyl)-2-(trifluoromethyl)pyridin-4amine] | 1000 to 5000 nM | ≤ 50 nM |
| CC(C)Oc1ccc(-n2cc(CNc3cc(C#N)nc(C#N)c3)nn2)cc1Cl [Compound 159, 4-(((1-(3-chloro-4-isopropoxyphenyl)-1H-1,2,3-triazol-4-yl)methyl)amino)pyridine-2,6-dicarbonitrile] | ≤ 250 nM | ≤ 50 nM |
| CC(C)Oc1ccc(-c2ncc(CNc3cc(Cl)nc(Cl)c3)s2)cc1 [Compound 162, 2,6-Dichloro-N-((2-(4-isopropoxyphenyl)thiazol-5-yl)methyl)pyridin-4-amine] | ≤ 250 nM | ≤ 50 nM |
| CC(C)Oc1ccc(-c2ncc(CNc3cc(C#N)nc(C(F)(F)F)c3)s2)cc1 [Compound 163, 4-(((2-(4-Isopropoxyphenyl)thiazol-5-yl)methyl)amino)-6-(trifluoromethyl)picolinonitrile] | ≤ 250 nM | – |
| Nc1cc(SCc2nc3cc(Oc4cccc(F)c4)ccc3[nH]2)nc(C(F)(F)F)n1 [Compound 171, 6-(((5-(3-fluorophenoxy)-1H-benzo[d]imidazol-2-yl)methyl)thio)-2-(trifluoromethyl)pyrimidin-4-amine] | ≤ 250 nM | – |
| COc1ccc(-n2cc(CNc3ccnc(C(F)(F)F)c3)nn2)cc1 [Compound 006, N-((1-(4-Methoxyphenyl)-1H-1,2,3-triazol-4-yl)methyl)-2-(trifluoromethyl)pyridin-4-amine] | 1000 to 5000 nM | 51 to 250 nM |
| Fc1ccccc1Oc1ccc(-c2ncc(CNc3cc(Cl)nc(C(F)(F)F)c3)cn2)cc1 [Compound 167, 2-chloro-N-((2-(4-(2-fluorophenoxy)phenyl)pyrimidin-5-yl)methyl)-6-(trifluoromethyl)pyridin-4-amine] | ≤ 250 nM | – |
| CC(C)Oc1ccc(-n2cc(CNc3cc(Cl)nc(C(F)(F)F)c3)nn2)cc1 [Compound 140, 2-chloro-N-((1-(4-isopropoxyphenyl)-1H-1,2,3-triazol-4-yl)methyl)-6-(trifluoromethyl)pyridin-4-amine] | ≤ 250 nM | – |
| CC(C)Oc1ccc(-c2ncc(CNc3ccnc(C#N)c3)s2)cc1Cl [Compound 091, 4-(((2-(3-Chloro-4-isopropoxyphenyl)thiazol-5-yl)methyl)amino)picolinonitrile] | ≤ 250 nM | ≤ 50 nM |
| CC(C)Oc1ccc(-n2cc(CNc3cc(Cl)nc(Cl)c3)nn2)cc1Cl [Compound 158, 2,6-dichloro-N-((1-(3-chloro-4-isopropoxyphenyl)-1H-1,2,3-triazol-4-yl)methyl)pyridin-4-amine] | ≤ 250 nM | ≤ 50 nM |
| FC(F)(F)c1cc(NCc2cn(-c3ccc(Oc4cccnc4)cc3)nn2)cc(Cl)n1 [Compound 141, 2-chloro-N-((1-(4-(pyridin-3-yloxy)phenyl)-1H-1,2,3-triazol-4-yl)methyl)-6-(trifluoromethyl)pyridin-4-amine] | ≤ 250 nM | ≤ 50 nM |
| FC(F)(F)c1cncc(NCc2cn(-c3ccc(Oc4ccccc4)cc3)nn2)c1 [Compound 021, N-((1-(4-phenoxyphenyl)-1H-1,2,3-triazol-4-yl)methyl)-5-(trifluoromethyl)pyridin-3-amine] | 1000 to 5000 nM | ≤ 50 nM |

| Compound | IC50 [1] | IC50 [2] |
| --- | --- | --- |
| FC(F)(F)c1cc(NCc2cn(-c3ccc(Oc4ccccc4)c(Cl)c3)nn2)ccn1 [Compound 053, N-((1-(3-Chloro-4-phenoxyphenyl)-1H-1,2,3-triazol-4-yl)methyl)-2-(trifluoromethyl)pyridin-4-amine] | ≤ 250 nM | ≤ 50 nM |
| FC(F)(F)c1nccc(SCc2cn(-c3ccc(Oc4ccccc4)cc3)nn2)n1 [Compound 061, 4-(((1-(4-phenoxyphenyl)-1H-1,2,3-triazol-4-yl)methyl)thio)-2-(trifluoromethyl)pyrimidine] | 251 to 1000 nM | ≤ 50 nM |
| CC(C)Oc1ccc(-c2ncc(CNc3cc(Cl)nc(C(F)(F)F)c3)s2)cc1Cl [Compound 094, 2-Chloro-N-((2-(3-chloro-4-isopropoxyphenyl)thiazol-5-yl)methyl)-6-(trifluoromethyl)pyridin-4-amine] | ≤ 250 nM | ≤ 50 nM |
| FC(F)(F)c1cc(NCc2cn(-c3ccc(-n4ncc5ccncc54)cc3)nn2)ccn1 [Compound 148, N-((1-(4-(1H-pyrazolo[3,4-c]pyridin-1-yl)phenyl)-1H-1,2,3-triazol-4-yl)methyl)-2-(trifluoromethyl)pyridin-4-amine] | 251 to 1000 nM | ≤ 50 nM |
| FC(F)(F)c1cc(NCc2cn(-c3ccc(-n4ncc5ccccc54)cc3)nn2)cc(Cl)n1 [Compound 150, N-((1-(4-(1H-indazol-1-yl)phenyl)-1H-1,2,3-triazol-4-yl)methyl)-2-chloro-6-(trifluoromethyl)pyridin-4-amine] | 251 to 1000 nM | – |
| FC(F)(F)c1cc(NCc2cn(-c3ccc(Nc4ccccc4)cc3)nn2)ccn1 [Compound 018, N-((1-(4-(Phenylamino)phenyl)-1H-1,2,3-triazol-4-yl)methyl)-2-(trifluoromethyl)pyridin-4-amine] | 251 to 1000 nM | ≤ 50 nM |
| Fc1ncccc1Oc1ccc(-n2cc(CNc3cc(Cl)nc(C(F)(F)F)c3)nn2)cc1 [Compound 142, 2-chloro-N-((1-(4-((2-fluoropyridin-3-yl)oxy)phenyl)-1H-1,2,3-triazol-4-yl)methyl)-6-(trifluoromethyl)pyridin-4-amine] | ≤ 250 nM | ≤ 50 nM |
| COc1ccc(-n2cc(CSc3ccnc(C(F)(F)F)c3)nn2)cc1 [Compound 062, 4-(((1-(4-methoxyphenyl)-1H-1,2,3-triazol-4-yl)methyl)thio)-2-(trifluoromethyl)pyridine] | – | 251 to 1000 nM |
| FC(F)(F)c1cc(SCc2cn(-c3ccc(Cl)c(Cl)c3)nn2)ccn1 [Compound 059, 4-(((1-(3,4-Dichlorophenyl)-1H-1,2,3-triazol-4-yl)methyl)thio)-2-(trifluoromethyl)pyridine] | – | 51 to 250 nM |
| Fc1cccc(Oc2ccc3[nH]c(CSc4ccnc(C(F)(F)F)c4)nc3c2)c1 [Compound 170, 5-(3-fluorophenoxy)-2-(((2-(trifluoromethyl)pyridin-4-yl)thio)methyl)-1H-benzo[d]imidazole] | ≤ 250 nM | – |
| FC(F)(F)c1cc(SCc2ccc(-c3ccc(Oc4ccccc4)cc3)cn2)ccn1 [Compound 109, 4-(((5-(4-phenoxyphenyl)pyridin-2-yl)methyl)thio)-2-(trifluoromethyl)pyridine] | – | 251 to 1000 nM |
| FC(F)(F)c1cc(SCc2cn(-c3ccc(Br)cc3)nn2)ccn1 [Compound 058, 4-(((1-(4-Bromophenyl)-1H-1,2,3-triazol-4-yl)methyl)thio)-2-(trifluoromethyl)pyridine] | – | 51 to 250 nM |
| FC(F)(F)c1cc(NCc2csc(-c3cccc(Oc4ccccc4)c3)n2)ccn1 [Compound 089, N-((2-(3-Phenoxyphenyl)thiazol-4-yl)methyl)-2-(trifluoromethyl)pyridin-4-amine] | – | 51 to 250 nM |
| FC(F)(F)c1cc(SCc2nc(-c3ccc(Cl)cc3)no2)ccn1 [Compound 137, 3-(4-Chlorophenyl)-5-(((2-(trifluoromethyl)pyridin-4-yl)thio)methyl)-1,2,4-oxadiazole] | – | 251 to 1000 nM |
| Fc1cccc(-n2cc(CNc3ccnc(C(F)(F)F)c3)nn2)c1 [Compound 009, N-((1-(3-Fluorophenyl)-1H-1,2,3-triazol-4-yl)methyl)-2-(trifluoromethyl)pyridin-4-amine] | – | 251 to 1000 nM |
